Results: article PMC11421850, “Identification of pharmacological inducers of a reversible hypometabolic state for whole organ preservation” (eLife, 2024)

Target: T1, delta opioid receptor (DOR) (Homo sapiens, UniProt P41143)
T1 construct: gene OPRD1
Assay: biochemical

T1 sequence (P41143 whole entry): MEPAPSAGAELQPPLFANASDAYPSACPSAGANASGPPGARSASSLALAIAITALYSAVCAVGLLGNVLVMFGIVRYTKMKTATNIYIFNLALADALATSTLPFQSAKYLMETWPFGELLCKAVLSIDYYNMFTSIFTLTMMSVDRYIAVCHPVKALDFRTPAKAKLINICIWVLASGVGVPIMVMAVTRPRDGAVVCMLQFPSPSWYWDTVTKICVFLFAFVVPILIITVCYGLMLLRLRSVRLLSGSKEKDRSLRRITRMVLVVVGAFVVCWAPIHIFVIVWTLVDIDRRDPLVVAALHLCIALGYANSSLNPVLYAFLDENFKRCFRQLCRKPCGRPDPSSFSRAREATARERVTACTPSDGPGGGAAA

With CCN(CC)C(=O)c1ccc([C@H](c2cccc(OC)c2)N2C[C@@H](C)OC[C@@H]2C)cc1 [WB3] the IC50 was 3.47 µM.
